Data from ChEMBL document CHEMBL1201862, “PubChem BioAssay data set” (2004).
The source made the active and inactive calls.

Assays:
[1] = NIH-3T3 fibroblast cytotoxicity, dose response, cytotoxicity control, cell-based, fluorescence, Alamar Blue, secondary assay (AID 2327); format: functional;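 note: NIH-3T3 mouse fibroblasts cultured with fluconazole at 8 µg/mL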
[2] = insulin promoter down-regulators in MIN6 cells, imaging, high-content screening, mouse beta cells (AID 1628); format: functional
[3] = cytotoxicity in MIN6 insulinoma cells, dose response, cytotoxicity control, cell-based, mouse insulinoma (AID 2122); format: functional;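 note: confirmatory high-throughput counterscreen run to flag cytotoxic compounds; mouse MIN-6 beta cells carrying an insulin promoter eGFP reporter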
[4] = C. albicans growth with fluconazole, confirmation, fluorescence, retest (AID 2467); format: functional, cell-based
[5] = target: T1, Microphthalmia-associated transcription factor (Homo sapiens, UniProt O75030); test: TRPM1 promoter luciferase signal decrease, dose response, MITF inhibitor project, cell-based, SK-MEL-5, cherry-picked, set 3 (AID 493073); format: functional
T1 sequence (O75030 whole entry): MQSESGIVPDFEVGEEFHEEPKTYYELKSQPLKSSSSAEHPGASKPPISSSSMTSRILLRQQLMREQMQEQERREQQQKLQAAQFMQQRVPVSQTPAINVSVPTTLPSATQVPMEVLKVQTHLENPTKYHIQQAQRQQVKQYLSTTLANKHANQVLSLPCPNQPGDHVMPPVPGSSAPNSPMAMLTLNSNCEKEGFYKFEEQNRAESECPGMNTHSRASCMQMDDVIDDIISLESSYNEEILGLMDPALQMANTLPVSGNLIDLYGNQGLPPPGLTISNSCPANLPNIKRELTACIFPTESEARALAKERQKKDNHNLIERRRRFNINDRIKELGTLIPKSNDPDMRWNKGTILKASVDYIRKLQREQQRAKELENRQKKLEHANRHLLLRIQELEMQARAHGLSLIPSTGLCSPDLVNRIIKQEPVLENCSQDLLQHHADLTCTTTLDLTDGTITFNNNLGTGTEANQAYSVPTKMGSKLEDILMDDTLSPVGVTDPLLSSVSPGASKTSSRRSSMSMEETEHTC

A-375 = test: MITF: Counter assay: A375 proliferation Measured in Cell-Based System Using Plate Reader - 2084-03_Inhibitor_Dose_DryPowder_Activity. [Related pubchem assays (depositor defined):AID488944]; format: functional; conditions: Homo sapiens
INS1 [6] = test: beta cell apoptosis inhibitors, cytokine rescue, dose response, luminescence, retest (AID 449756); format: functional, cell-based; conditions: Rattus norvegicus;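 note: cell death triggered by IL-1 beta plus TNF-alpha plus IFN-gamma mixture; protective hits raise ATP signal compared with cytokine alone wells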
Jurkat = test: antigen receptor-induced NF-kB inhibitors, dose response, Jurkat, luciferase reporter, luminescence, B- and T-cell (AID 489004); format: functional, cell-based; conditions: Homo sapiens;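 note: NF-kB luciferase reporter Jurkat cells stimulated with PMA plus ionomycin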
[7] = cytotoxicity in HEK-293T NF-kB-Luc cells, dose response, cytotoxicity control for B/T-cell NF-kB inhibitor project, cell-based, uHTS hits (AID 489019); format: functional;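 note: IC50 reflects cytotoxicity as loss of cell viability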
[8] = Shn3 3'UTR reporter inhibitors, dose response, cell-based, Clone20 osteoblasts, firefly luciferase, cherry-picked (AID 624132); format: functional;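 note: firefly luciferase luminescence from reporter carrying the Shn3 3'UTR in osteoblasts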
[9] = HepG2 cell cytotoxicity, dose response, cytotoxicity control for Shn3 inhibitor project, CellTiter-Glo, cherry-picked (AID 624134); format: functional, cell-based
[10] = control 3'UTR Renilla luciferase suppression, dose response, counter-screen for Shn3 inhibitor project, cell-based, Clone20-Shn3RL, cherry-picked (AID 624133); format: functional
[11] = target: Photoreceptor-specific nuclear receptor (Homo sapiens, UniProt Q9Y5X4); format: functional, cell-based;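 note: CHO-S cells with Gal4-NCOR and VP16-NR2E3 two-hybrid luciferase reporter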
Sequence of Photoreceptor-specific nuclear receptor (Q9Y5X4 whole entry, the tested form may be a part): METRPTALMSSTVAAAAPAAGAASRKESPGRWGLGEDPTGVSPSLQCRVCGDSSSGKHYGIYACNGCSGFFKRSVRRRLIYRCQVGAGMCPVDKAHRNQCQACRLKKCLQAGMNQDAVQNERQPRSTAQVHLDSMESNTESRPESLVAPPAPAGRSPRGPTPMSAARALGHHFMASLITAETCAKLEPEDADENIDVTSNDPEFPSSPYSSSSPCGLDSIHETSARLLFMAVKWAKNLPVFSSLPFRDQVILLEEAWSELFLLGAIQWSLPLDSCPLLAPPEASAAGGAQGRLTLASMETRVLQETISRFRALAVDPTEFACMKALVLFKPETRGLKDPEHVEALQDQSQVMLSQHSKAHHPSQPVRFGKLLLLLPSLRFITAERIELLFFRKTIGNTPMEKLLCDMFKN

HEK293 = test: cells; format: functional, cell-based; conditions: Homo sapiens
[12] = target: Nuclear receptor subfamily 0 group B member 1 (Homo sapiens, UniProt P51843); test: Luminescence-based cell-based high throughput dose response assay for inhibitors of the orphan nuclear receptor subfamily 0, group B, member 1 (DAX1; NR0B1). [Related pubchem assays (depositor defined):AID504766, AID504790]; format: functional
Sequence of Nuclear receptor subfamily 0 group B member 1 (P51843 whole entry): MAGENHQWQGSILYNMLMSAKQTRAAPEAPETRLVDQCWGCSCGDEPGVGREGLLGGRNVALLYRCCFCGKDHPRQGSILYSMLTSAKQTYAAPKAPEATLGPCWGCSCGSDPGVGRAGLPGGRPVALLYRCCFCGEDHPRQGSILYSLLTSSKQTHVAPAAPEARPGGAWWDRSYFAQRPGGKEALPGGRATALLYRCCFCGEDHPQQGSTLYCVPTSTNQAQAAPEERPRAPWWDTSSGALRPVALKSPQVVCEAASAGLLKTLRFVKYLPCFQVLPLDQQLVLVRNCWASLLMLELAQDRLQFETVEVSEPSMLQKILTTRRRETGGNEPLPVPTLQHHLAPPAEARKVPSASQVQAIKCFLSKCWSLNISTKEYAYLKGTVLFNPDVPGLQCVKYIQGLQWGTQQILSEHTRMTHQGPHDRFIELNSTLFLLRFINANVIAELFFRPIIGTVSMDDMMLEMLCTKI

INS1 [13] = test: protection of INS-1E cells from cytokine death, dose response, ATP luminescence, dry powder (AID 488844); format: functional, cell-based; conditions: Rattus norvegicus
[14] = inhibitors of cytokine-induced nitrite release, dose response, cell-based, Griess absorbance, INS-1E, dry powder, set 3 (AID 488870); format: functional; conditions: Rattus norvegicus
INS1 [15] = test: protection from cytokine-driven beta-cell apoptosis, dose response, JC-1 fluorescence, INS-1E, dry powder, set 2 (AID 488867); format: functional, cell-based; conditions: Rattus norvegicus
[16] = target: T2, Heat shock factor protein 1 (Mus musculus, UniProt P38532); test: inhibition of MG132-induced HSE-luciferase signal, confirmation, cell-based, NIH3T3, luminescence, dose retest (AID 2382); format: functional;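 note: NIH3T3 fibroblasts with HSF1-driven luciferase reporter stressed by proteasome inhibitor MG132; luminescence from HSF1-driven luciferase expression after 8 hours of MG132 stress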
T2 sequence (P38532 whole entry): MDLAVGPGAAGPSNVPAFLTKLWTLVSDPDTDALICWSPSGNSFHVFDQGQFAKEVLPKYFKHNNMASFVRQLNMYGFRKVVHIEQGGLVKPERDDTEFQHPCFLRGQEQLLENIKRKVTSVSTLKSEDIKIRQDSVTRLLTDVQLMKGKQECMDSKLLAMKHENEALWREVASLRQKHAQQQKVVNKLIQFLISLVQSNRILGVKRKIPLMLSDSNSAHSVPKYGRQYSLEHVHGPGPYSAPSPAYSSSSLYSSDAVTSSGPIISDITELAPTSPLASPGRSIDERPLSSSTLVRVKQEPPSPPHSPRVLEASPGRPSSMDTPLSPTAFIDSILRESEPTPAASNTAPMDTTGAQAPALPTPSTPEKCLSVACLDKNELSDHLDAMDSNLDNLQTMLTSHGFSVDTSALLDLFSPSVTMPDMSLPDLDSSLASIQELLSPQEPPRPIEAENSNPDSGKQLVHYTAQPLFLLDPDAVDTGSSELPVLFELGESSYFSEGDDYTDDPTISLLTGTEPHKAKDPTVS

Prothrombin = Prothrombin (Homo sapiens, UniProt P00734); test: Thrombin 1536 HTS Dose Response Confirmation. [Related pubchem assays: 1046 (Thrombin 1536 HTS; hits were confirmed in this assay)]; format: functional
[17] = target: Dual specificity protein kinase CLK1 (Homo sapiens, UniProt P49759); test: CLK1 kinase inhibitors, off-target check, dose response, selectivity assay for Dyrk1A inhibitor project, biochemical, cherry-picked samples (AID 588811)
Sequence of Dual specificity protein kinase CLK1 (P49759 whole entry): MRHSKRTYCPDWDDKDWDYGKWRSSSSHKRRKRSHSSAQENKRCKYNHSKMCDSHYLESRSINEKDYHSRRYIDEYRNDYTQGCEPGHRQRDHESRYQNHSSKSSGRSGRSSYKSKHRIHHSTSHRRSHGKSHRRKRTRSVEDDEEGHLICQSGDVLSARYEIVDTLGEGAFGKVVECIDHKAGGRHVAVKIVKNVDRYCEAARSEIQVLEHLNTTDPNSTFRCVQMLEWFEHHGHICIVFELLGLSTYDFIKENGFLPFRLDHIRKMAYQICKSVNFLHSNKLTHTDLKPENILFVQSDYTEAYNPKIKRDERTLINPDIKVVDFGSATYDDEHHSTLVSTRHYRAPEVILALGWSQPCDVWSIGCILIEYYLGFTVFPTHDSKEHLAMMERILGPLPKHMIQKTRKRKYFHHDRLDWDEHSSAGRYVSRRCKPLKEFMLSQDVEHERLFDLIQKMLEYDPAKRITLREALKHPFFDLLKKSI

[18] = target: Dual specificity tyrosine-phosphorylation-regulated kinase 1A (Rattus norvegicus, UniProt Q63470); format: biochemical, Homo sapiens

For `COc1ccc(-c2c[n+](CC(=O)OC3CC(C)CCC3C(C)C)c3n2CCC3)cc1` (configuration not stated), the EC50 [1] was > 150 µM (inactive), the IC50 [2] was < 0.25 µM (active) and the IC50 [3] was < 0.25 µM (active). The EC50 [4] was 0.894 µM (active), the AC50 [5] was 4.87 µM (active) and the AC50 (A-375) was 35 µM (active). For the same compound, the AC50 (INS1 [6]) was 1.78 µM (active).
In the case of `Cc1cc2sc3ccc(C#CC4(O)CCCCC4)cc3c(=O)c2cc1C`, the IC50 (Jurkat) is reported as < 0.16 µM (active), the IC50 [7] is reported as > 80 µM (inactive) and the AC50 [8] is reported as < 0.26 µM (active). The AC50 [9] was 42 µM (active), the AC50 [10] was 25 µM (active) and the IC50 [11] was 0.0182 µM (active).
In the case of `Nn1c(SCc2c(F)cccc2F)nnc1-c1ccccn1`, the IC50 (HEK293) is reported as > 67.6 µM (inactive) and the IC50 [12] is reported as > 67.6 µM (inactive).
In the case of `Cc1ccc(S(=O)(=O)N(C)C[C@@H]2Oc3c(NC(=O)Nc4ccc(F)cc4)cccc3C(=O)N([C@H](C)CO)C[C@H]2C)cc1`, the AC50 (INS1 [13]) is reported as 73.9 µM (active), the AC50 [14] is reported as 63.4 µM (active) and the AC50 (INS1 [15]) is reported as 106 µM (active).
In the case of `COc1ccc(-c2n[nH]cc2-c2ccc3c(c2)OCCO3)c(O)c1`, the EC50 [16] is reported as 2.8 µM (active), the IC50 (Prothrombin) is reported as > 50 µM (not active) and the AC50 [17] is reported as 8.33 µM (active). The AC50 [18] was 12 µM (active).
